Laboratory results from patent US20180320177A1, “COMPOSITIONS AND METHODS FOR THE TREATMENT OF LIVER FIBROSIS” (UNIVERSITY OF CONNECTICUT, priority 2015, published 2018).
“Also recorded” adds a separate entry of the source.

Tests used:
MMP and Rho signaling = test: Western blot of MMP and Rho signaling in TIC cells; format: cell-based; details: TIC cells (FIG. 7E)
Method: Western Blotting: Total protein lysates were prepared from livers and cells in lysis buffer containing 50 mM Tris, pH 8.0, 1% Nonidet™ P-40, 150 mM NaCl, 0.5% sodium deoxycholate, 0.1% SDS with protease inhibitors (Thermo Fisher Scientific) and subjected to immunoblotting. Nuclear and cytoplasmic subcellular fractions were prepared using NE-PER nuclear and cytoplasmic extraction reagents (Pierce) according to the manufacturer's instructions. The blot was incubated with a primary antibody, followed by a secondary antibody conjugated to horseradish peroxidase. ECL kit (Pierce) was used to detect the reactivity. The following antibodies were obtained from Cell Signaling Technology: HMGB2, HMGB1, AKT, p-AKT, mTOR, p-mTOR, ERK1/2, pERK1/2, Raptor, Rictor, p53, p21, p-Bad, Smad4, p-Smad2/3, Lamin A/C, a-SMA, MMP2, MMP9, TIMP1, RhoA, Rho-GTP, Cdc42, Rac1/2/3. Anti-HA antibody and anti-beta actin antibody were purchased from Sigma and Santa Cruz Biotechnology, respectively.
Cell Lines The LX-2 human stellate cell line was maintained in Dulbecco's Modified Eagle's Medium (DMEM) supplemented with 2% fetal bovine serum (FBS), 100 IU/ml penicillin, and 100 μg/ml streptomycin. Human hepatocellular carcinoma (HCC) MHCC97H cells were maintained in DMEM supplemented with 10% FBS, 100 IU/ml penicillin, and 100 μg/ml streptomycin, 1 mM HEPES, 1 mM sodium pyruvate, 2 mM L-glutamine. Tumor-initiating (TIC) cells were obtained from Dr. Hidekazu Tsukamoto at University of Southern California and were maintained in 1:1 DMEM:F12 supplement with 100 U/ml penicillin and 100 μg/ml streptomycin, 2 mM glutamine, 20 ng/ml mouse EGF, 10 nM dexamethasone, 1× embryomax nucleotides. All the cells were maintained at 37° C. humidified atmosphere with 5% CO2. TIC cells were infected with Hmgb2 shRNA lentivirus for 48 hr, and treated with 500 ng/ml puromycin for 2 weeks. The stable cells were used for migration and invasion assay, as well as western blot.

HMGB2 protein = target: T1, HMGB2 protein (Mus musculus, UniProt P30681); test: Western blot of HMGB2 protein in liver of CCl4-treated mice; format: in vivo
T1 construct: Total protein lysates were prepared from livers and cells in lysis buffer; from tissue; host or cells: mouse liver (C57BL/6J, CCl4 with or without ICM)
T1 sequence (P30681 1-210): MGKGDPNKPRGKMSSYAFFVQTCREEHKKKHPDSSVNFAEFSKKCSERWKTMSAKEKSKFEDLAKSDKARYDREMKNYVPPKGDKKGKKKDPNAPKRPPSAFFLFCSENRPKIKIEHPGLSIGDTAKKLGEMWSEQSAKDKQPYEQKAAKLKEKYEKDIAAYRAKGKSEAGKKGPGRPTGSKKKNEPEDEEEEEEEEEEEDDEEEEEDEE
Method: (§1) Animal Care: All animal care and experimental procedures were approved by the Institutional Animal Care and Use Committee at the University of Connecticut. Shp^−/− mice were described previously. Hmgb2^−/− mice were obtained from Dr. Stella Tsirka at Stony Brook University. C57BL/6J mice were purchased from Jackson Laboratory. All mice were maintained on a 12-h light/dark cycle with free access to food and water unless otherwise indicated. For CCl4 treatment, CCl4 (Sigma) was dissolved in corn oil and administered to mice at a dose of 850 μl/kg BW by intraperitoneal injection (IP) twice a week for 6 or 10 weeks with or without ICM. Age-matched control mice were treated with a corn oil vehicle. For CCl4+ICM treatment, mice were treated with CCl4 for 2 weeks and then ICM (Department of Pharmaceutical Sciences at UConn) was dissolved in PEG (Sigma) and treated with mice (10 mg/kg) every day for 4 or 8 weeks in combination with CCl4. To induce overexpression of HMGB2 in liver, AAV8-Hmgb2 or a control AAV8-GFP was given to mice by tail vein injection at a dose of 5×10^10 GC. To knockdown HMGB2 in mouse livers, AAV-shHmgb2 or a control AAV-shGFP was delivered to mice at a dose of 2×10^10 GC by tail vein injection. One week later, mice injected with AAVs were treated with CCl4 or CCl4 +ICM as described above and sacrificed. […]

[1] = tested on: CCl4-induced inflammation; test: CCl4-induced inflammation in mouse liver; format: in vivo; details: CCl4-treated mice (FIG. 4C, 4D)
Method: as §1

| Compound | MMP signaling (MMP and Rho signaling) | Rho signaling (MMP and Rho signaling) | liver HMGB2 protein induced by CCl4 (HMGB2 protein; CCl4 mice treated with ICM, Western blot) | selectivity HMGB2 protein versus HMGB1 protein (HMGB2 protein; mouse liver, CCl4+ICM (FIG. 16)) | inflammatory response [1] |
| --- | --- | --- | --- | --- | --- |
| CC1(C)Oc2cc(O)ccc2C2C1=CCn1c(=O)n(-c3ccccc3)c(=O)n12 (centres unmarked) [ICM, inflachromene] | decreased | decreased | decreases; also recorded: blocked by ICM; also recorded: reduction in liver HMGB2 protein | more selective to downregulate HMGB2 protein | decrease inflammatory response |
| shHMGB2: small hairpin RNA against HMGB2 (SEQ ID NO: 8), delivered by AAV or lentivirus (CCGGGCTCAACATTAGCTTCAGTATCTCGAGATACTGAAGCTAATGTTGAGCTTTTTG) | decreased | decreased | – | – | decrease inflammatory response |
